# Measurements from patent publication US9586958B2, “Prodrug derivatives of substituted triazolopyridines” (BAYER PHARMA AKTIENGESELLSCHAFT, priority 2013, dated 2017).
# Experiments:
# [1] = Stability in buffer at pH 7.4 (HPLC); format: physicochemical; conditions: buffer pH 7.4, 37° C.
# Method: 0.3 mg of the test compound are solved in 0.1 ml dimethylsulfoxide and 0.4 ml acetonitrile. For complete dissolution the HPLC vial with the sample solution is sonified for about 20 seconds. Then 1.0 ml of the buffer solution is added, and the sample is again treated in the ultrasonic bath.
# 90 g of sodium chloride, 13.61 g of potassium dihydrogen phosphate and 83.35 g of 1 M sodium hydroxide solution are made up to 1 liter with Millipore water and then diluted 1:10.
# 10 μl portions of the sample solution are analysed by HPLC to determine the amount of the test compound over a period of 24 hours at 37° C. The peak areas in percentage are used for quantification.
# Agilent 1100 with DAD (G1315B), binary pump (G1312A), autosampler (G1329A), column oven (G1316A), thermostat (G1330B); column: Kromasil 100 C18, 250 mm×4 mm, 5 μm; column temperature: 37° C.; eluent A: water+5 ml of perchloric acid/liter, eluent B: acetonitrile.
# The ratio of the peak areas (F) at different time points in relation to the peak areas at the starting time are shown in Table 2 for representative examples: […]
# [2] = In vitro stability in rat plasma (HPLC detection); format: in vitro ADME; conditions: 37° C.
# Method: 1 mg of test compound is dissolved in 1.25 ml dimethylsulfoxide. Then 1.25 ml water are added. 0.5 ml of this sample solution are mixed with 0.5 ml heparinized and 37° C. warm plasma (wistar rat plasma or human plasma). A first sample (10 μl) is immediately taken for HPLC analysis. In the period up to 4 h after the start of incubation further 10 μl aliquots are taken after 30, 60, 90, 120 and 240 minutes and the amount of the test compound is determined.
# Agilent 1100 with DAD (G1315A), binary pump (G1312A), autosampler (G1329A), column oven (G1316A), thermostat (G1330B); column: Kromasil 100 C18, 250 mm×4 mm, 5 μm; column temperature: 45° C.; eluent A: water+5 ml of perchloric acid/liter, eluent B: acetonitrile.
% Test Compound after 24 h [F(t = 24 h) × 100/F(t = 0 h)] [1] [%],% Test Compound after 4 h [F(t = 24 h) × 100/F(t = 0 h)] [2] [%],% Test Compound after 4 h [F(t = 24 h) × 100/F(t = 0 h)] ([2]; hydrochloride) [%],% Test Compound after 24 h [F(t = 24 h) × 100/F(t = 0 h)] ([1]; measured for formic acid salt),Compound
0.0,5,–,–,"COc1cc(S(C)(=O)=O)ccc1N(C(=O)OC(C)OC(=O)[C@@H](NC(=O)[C@@H](N)CCCCN)C(C)C)c1nc2ccc(-c3ccc(NC(=O)[C@H](C)c4ccc(F)cc4)cc3)cn2n1.Cl.Cl (mixture of isomers) [Example 2.2, (1RS)-1-({[6-(4-{[(2R)-2-(4-fluorophenyl)propanoyl]amino}phenyl)[1,2,4]triazolo[1,5-α]pyridin-2-yl][2-methoxy-4-(methylsulfonyl)phenyl]carbamoyl}oxy)ethyl L-lysyl-L-valinate dihydrochloride]"
48,45,–,–,"COc1cc(S(C)(=O)=O)ccc1N(C(=O)OC(C)OC(=O)[C@@H](NC(=O)[C@@H](N)C(C)C)C(C)C)c1nc2ccc(-c3ccc(NC(=O)[C@H](C)c4ccc(F)cc4)cc3)cn2n1.Cl (mixture of isomers) [Example 2.4, (1RS)-1-({[6-(4-{[(2R)-2-(4-fluorophenyl)propanoyl]amino}phenyl)[1,2,4]triazolo[1,5-α]pyridin-2-yl][2-methoxy-4-(methylsulfonyl)phenyl]carbamoyl}oxy)ethyl L-valyl-L-valinate hydrochloride]"
0.0,0.0,–,–,"COc1cc(S(C)(=O)=O)ccc1N(C(=O)OC(C)OC(=O)[C@@H](N)C(C)C)c1nc2ccc(-c3ccc(NC(=O)[C@H](C)c4ccc(F)cc4)cc3)cn2n1.Cl (mixture of isomers) [Example 3.1, (1RS)-1-({[6-(4-{[(2R)-2-(4-fluorophenyl)propanoyl]amino}phenyl)[1,2,4]triazolo[1,5-α]pyridin-2-yl][2-methoxy-4-(methylsulfonyl)phenyl]carbamoyl}oxy)ethyl L-valinate hydrochloride]"
0.0,0.0,–,–,"COc1cc(S(C)(=O)=O)ccc1N(C(=O)OC(C)OC(=O)[C@@H](N)C(C)(C)C)c1nc2ccc(-c3ccc(NC(=O)[C@H](C)c4ccc(F)cc4)cc3)cn2n1.Cl (mixture of isomers) [Example 3.2, (1RS)-1-({[6-(4-{[(2R)-2-(4-fluorophenyl)propanoyl]amino}phenyl)[1,2,4]triazolo[1,5-α]pyridin-2-yl][2-methoxy-4-(methylsulfonyl)phenyl]carbamoyl}oxy)ethyl 3-methyl-L-valinate hydrochloride]"
–,19,–,–,"CC[C@H](C)[C@H](N)C(=O)OC(C)OC(=O)N(c1nc2ccc(-c3ccc(NC(=O)[C@H](C)c4ccc(F)cc4)cc3)cn2n1)c1ccc(S(C)(=O)=O)cc1OC.Cl (mixture of isomers) [Example 3.5, (1RS)-1-({[6-(4-{[(2R)-2-(4-fluorophenyl)propanoyl]amino}phenyl)[1,2,4]triazolo[1,5-α]pyridin-2-yl][2-methoxy-4-(methylsulfonyl)phenyl]carbamoyl}oxy)ethyl-L-isoleucinate hydrochloride]"
21,19,–,–,"COc1cc(S(C)(=O)=O)ccc1N(C(=O)OC(OC(=O)[C@@H](N)C(C)(C)C)C(C)C)c1nc2ccc(-c3ccc(NC(=O)[C@H](C)c4ccc(F)cc4)cc3)cn2n1.Cl (mixture of isomers) [Example 5.1, (1RS)-1-({[6-(4-{[(2R)-2-(4-fluorophenyl)propanoyl]amino}phenyl)[1,2,4]triazolo[1,5-α]pyridin-2-yl][2-methoxy-4-(methylsulfonyl)phenyl]carbamoyl}oxy)-2-methylpropyl 3-methyl-L-valinate hydrochloride]"
17,44,–,–,"COc1cc(S(C)(=O)=O)ccc1N(C(=O)OC(OC(=O)[C@@H](N)C(C)C)C(C)C)c1nc2ccc(-c3ccc(NC(=O)[C@H](C)c4ccc(F)cc4)cc3)cn2n1.Cl (mixture of isomers) [Example 5.4, (1RS)-1-({[6-(4-{[(2R)-2-(4-fluorophenyl)propanoyl]amino}phenyl)[1,2,4]triazolo[1,5-α]pyridin-2-yl][2-methoxy-4-(methylsulfonyl)phenyl]carbamoyl}oxy)-2-methylpropyl-L-valinate hydrochloride]"
–,33,–,–,"COc1cc(S(C)(=O)=O)ccc1N(C(=O)OC(OC(=O)C(C)(C)N)C(C)C)c1nc2ccc(-c3ccc(NC(=O)[C@H](C)c4ccc(F)cc4)cc3)cn2n1.Cl (mixture of isomers) [Example 5.5, (1RS)-1-({[6-(4-{[(2R)-2-(4-fluorophenyl)propanoyl]amino}phenyl)[1,2,4]triazolo[1,5-α]pyridin-2-yl][2-methoxy-4-(methylsulfonyl)phenyl]carbamoyl}oxy)-2-methylpropyl-2-methylalaninate hydrochloride]"
0.0,–,22,–,"COc1cc(S(C)(=O)=O)ccc1N(C(=O)OC(C)OC(=O)[C@@H](N)C(C)(C)C)c1nc2ccc(-c3ccc(NC(=O)[C@H](C)c4ccc(F)cc4)cc3)cn2n1.Cl (single isomer, unassigned) [Example 3.3, (1R or 1S)-1-({[6-(4-{[(2R)-2-(4-fluorophenyl)propanoyl]amino}phenyl)[1,2,4]triazolo[1,5-α]pyridin-2-yl][2-methoxy-4-(methylsulfonyl)phenyl]carbamoyl}oxy)ethyl-3-methyl-L-valinate hydrochloride]"
0.0,–,–,–,"CC[C@H](C)[C@H](N)C(=O)OC(C)OC(=O)N(c1nc2n(n1)CC(c1ccc(NC(=O)[C@H](C)c3ccc(F)cc3)cc1)C=C2)c1ccc(S(C)(=O)=O)cc1OC.Cl (single isomer, unassigned) [Example 3.6, (1S or 1R)-1-({[6-(4-{[(2R)-2-(4-fluorophenyl)propanoyl]amino}phenyl)[1,2,4]triazolo[1,5-α]pyridin-2-yl][2-methoxy-4-(methylsulfonyl)phenyl]carbamoyl}oxy)ethyl-isoleucinate hydrochloride]"
0.0,–,–,–,"CC[C@H](C)[C@H](N)C(=O)OC(C)OC(=O)N(c1nc2ccc(-c3ccc(NC(=O)[C@H](C)c4ccc(F)cc4)cc3)cn2n1)c1ccc(S(C)(=O)=O)cc1OC.Cl (single isomer, unassigned) [Example 3.7, (1R or 1S)-1-({[6-(4-{[(2R)-2-(4-fluorophenyl)propanoyl]amino}phenyl)[1,2,4]triazolo[1,5-α]pyridin-2-yl][2-methoxy-4-(methylsulfonyl)phenyl]carbamoyl}oxy)ethyl-L-isoleucinate hydrochloride]"
–,–,–,35.0 *) %,"COc1cc(S(C)(=O)=O)ccc1N(C(=O)OCOC(=O)C1CCNCC1)c1nc2ccc(-c3ccc(NC(=O)[C@H](C)c4ccc(F)cc4)cc3)cn2n1.O=C(O)C(F)(F)F [Example 1.1, ({[6-(4-{[(2R)-2-(4-fluorophenyl)propanoyl]amino}phenyl)[1,2,4]triazolo[1,5-α]pyridin-2-yl][2-methoxy-4-(methylsulfonyl)phenyl]carbamoyl}oxy)methyl piperidine-4-carboxylate trifluoroacetate]"
–,0.0,–,–,"COc1cc(S(C)(=O)=O)ccc1N(C(=O)OCOC(=O)[C@@H](N)CC(C)C)c1nc2ccc(-c3ccc(NC(=O)[C@H](C)c4ccc(F)cc4)cc3)cn2n1.Cl [Example 1.3, ({[6-(4-{[(2R)-2-(4-fluorophenyl)propanoyl]amino}phenyl)[1,2,4]triazolo[1,5-α]pyridin-2-yl][2-methoxy-4-(methylsulfonyl)phenyl]carbamoyl}oxy)methyl L-leucinate hydrochloride]"
–,0.0,–,–,"COc1cc(S(C)(=O)=O)ccc1N(C(=O)OCOP(=O)(O)O)c1nc2ccc(-c3ccc(NC(=O)[C@H](C)c4ccc(F)cc4)cc3)cn2n1 [Example 1.6, (phosphonooxy)methyl [6-(4-{[(2R)-2-(4-fluorophenyl)propanoyl]amino}phenyl)[1,2,4]triazolo[1,5-α]pyridin-2-yl][2-methoxy-4-(methylsulfonyl)phenyl]carbamate]"
–,6,–,–,"CC(C)[C@H](N)C(=O)OCOC(=O)N(c1nc2ccc(-c3ccc(NC(=O)[C@H](C)c4ccc(F)cc4)cc3)cn2n1)c1ccc(S(C)(=O)=O)cc1OCC(F)(F)F.Cl [Example 6.2, ({[6-(4-{[(2R)-2-(4-fluorophenyl)propanoyl]amino}phenyl)[1,2,4]triazolo[1,5-α]pyridin-2-yl][4-(methylsulfonyl)-2-(2,2,2-trifluoroethoxy)phenyl]carbamoyl}oxy)methyl L-valinate hydrochloride]"
–,57,–,–,"CNCC(=O)N(c1nc2ccc(-c3ccc(NC(=O)[C@H](C)c4ccc(F)cc4)cc3)cn2n1)c1ccc(S(C)(=O)=O)cc1OC.O=C(O)C(F)(F)F [Example 8.1, (2R)-2-(4-fluorophenyl)-N-[4-(2-{[2-methoxy-4-(methylsulfonyl)phenyl](N-methylglycyl)amino}[1,2,4]triazolo[1,5-α]pyridin-6-yl)phenyl]propanamide trifluoroacetate]"
